Source: ChEMBL document CHEMBL1126757, “Benzoquinazoline inhibitors of thymidylate synthase: enzyme inhibitory activity and cytotoxicity of some 3-amino- and 3-methylbenzo[f]quinazolin-1(2H)-ones” (J Med Chem, 1993)

Key:
Thymidylate synthase [1] = biological target: T1, Thymidylate synthase (Homo sapiens, UniProt P04818)
Target sequence in this assay (P04818 whole entry): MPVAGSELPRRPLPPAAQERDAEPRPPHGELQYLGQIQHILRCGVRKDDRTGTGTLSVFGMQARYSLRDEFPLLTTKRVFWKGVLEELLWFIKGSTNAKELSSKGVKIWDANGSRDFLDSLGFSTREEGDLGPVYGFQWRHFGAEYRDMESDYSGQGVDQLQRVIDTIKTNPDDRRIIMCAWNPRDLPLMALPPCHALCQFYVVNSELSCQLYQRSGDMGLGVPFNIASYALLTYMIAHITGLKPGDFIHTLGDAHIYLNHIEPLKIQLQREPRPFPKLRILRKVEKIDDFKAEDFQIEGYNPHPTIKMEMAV

[2] = biological target: Thymidylate synthase (Escherichia coli) (UniProt C3SWJ7); assay: Tested for inhibition against thymidylate synthase (TS) in Escherichia coli at 432 uM
SW480 = assay: cells; details: Homo sapiens
Thymidylate synthase [3] = biological target: T2, Thymidylate synthase (Escherichia coli, UniProt C3SWJ7); assay: Inhibition against thymidylate synthase (TS) in Escherichia coli; details: read-out: I50
[4] = biological target: Thymidylate synthase (Escherichia coli) (UniProt C3SWJ7); assay: Tested for percent inhibition against thymidylate synthase (TS) in Escherichia coli at 29.2 uM
[5] = tested on: Thymidylate synthase (Candida albicans); assay: Tested for percent inhibition against thymidylate synthase (TS) in Candida albicans at 28.8 uM
Thymidylate synthase [6] = biological target: T1, Thymidylate synthase; assay: Tested for percent inhibition against thymidylate synthase (TS) in human at 29.2 uM
Target sequence in this assay (P04818 whole entry, looked up): as the sequence (P04818 whole entry) above

[7] = biological target: Thymidylate synthase (Escherichia coli) (UniProt C3SWJ7); assay: Tested for percent inhibition against thymidylate synthase (TS) in Escherichia coli at 764.0 uM
Target sequence in this assay (C3SWJ7 1-264): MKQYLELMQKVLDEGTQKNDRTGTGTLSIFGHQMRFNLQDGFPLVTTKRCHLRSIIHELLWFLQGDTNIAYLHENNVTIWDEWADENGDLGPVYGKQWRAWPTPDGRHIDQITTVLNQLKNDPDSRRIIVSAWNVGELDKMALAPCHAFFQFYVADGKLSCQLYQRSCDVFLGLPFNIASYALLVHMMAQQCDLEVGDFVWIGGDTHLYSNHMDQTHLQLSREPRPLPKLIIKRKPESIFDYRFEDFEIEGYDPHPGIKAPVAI

Thymidylate synthase [8] = biological target: T2, Thymidylate synthase; assay: Tested against thymidylate synthase (TS) in E. coli; details: read-out: I50
[9] = tested on: Thymidylate synthase (Bos taurus); assay: Tested for percent inhibition against thymidylate synthase (TS) in calf thymus at 400 uM
[10] = biological target: Thymidylate synthase (Escherichia coli) (UniProt C3SWJ7); assay: Tested for percent inhibition against thymidylate synthase (TS) in Escherichia coli at 0.5 uM
Thymidylate synthase [11] = biological target: T1, Thymidylate synthase; assay: Tested for percent inhibition against thymidylate synthase (TS) in human at 18 uM
Target sequence in this assay (P04818 whole entry, looked up): as the sequence (P04818 whole entry) above

[12] = biological target: Thymidylate synthase (Escherichia coli) (UniProt C3SWJ7); assay: Tested for percent inhibition against thymidylate synthase (TS) in Escherichia coli at 18 uM
Thymidylate synthase [13] = biological target: T1, Thymidylate synthase; assay: Tested for inhibition against thymidylate synthase (TS) in human
Target sequence in this assay (P04818 whole entry): as above

[14] = tested on: Thymidylate synthase (Candida albicans); assay: Tested for inhibition against thymidylate synthase (TS) in Candida albicans at 10 uM
Thymidylate synthase [15] = biological target: T1, Thymidylate synthase; assay: Tested for percent inhibition against thymidylate synthase (TS) in human at 96.8 uM
Target sequence in this assay (P04818 whole entry, looked up): as the sequence (P04818 whole entry) above

[16] = tested on: Thymidylate synthase (Candida albicans); assay: Tested for percent inhibition against thymidylate synthase (TS) in Candida albicans at 100 uM
[17] = biological target: Thymidylate synthase (Escherichia coli) (UniProt C3SWJ7); assay: Tested for inhibition against thymidylate synthase (TS) in Escherichia coli at 59.6 uM
Thymidylate synthase [18] = biological target: T1, Thymidylate synthase; assay: Tested for percent inhibition against thymidylate synthase (TS) in human at 19 uM
Target sequence in this assay (P04818 whole entry, looked up): as the sequence (P04818 whole entry) above

T2 sequence (C3SWJ7 whole entry): as the sequence (C3SWJ7 1-264) above

IC50 (Thymidylate synthase [1]) | IC50 (SW480) | IC50 (Thymidylate synthase [3]) | SMILES | other results
7.5 µM | 35 µM | 18.1 µM | Cc1cccc2c1ccc1nc(N)nc(O)c12 | 
3.28 µM |  | 4.3 µM | CCSc1ccc2ccc3nc(N)nc(O)c3c2c1 | 
0.022 µM | 10 µM | 0.267 µM | Nc1nc(O)c2c(ccc3ccc(Br)cc32)n1 | 
0.5 µM | 10 µM | 2.4 µM | Nc1nc(O)c2c(ccc3ccc(F)cc32)n1 | 
552 µM | 30 µM | 403 µM | Nc1nc(O)c2c(ccc3c([N+](=O)[O-])c(F)ccc32)n1 | 
 | 50 µM |  | Nc1nc(O)c2c(ccc3cc(F)cc([N+](=O)[O-])c32)n1 | inhibition [7]: 41%
 | 30 µM |  | Cc1nc(O)c2c(ccc3cc(Br)ccc32)n1 | inhibition (Thymidylate synthase [11]): 20%; inhibition [12]: 0%
0.34 µM | 15 µM | 2.8 µM | Nc1nc(O)c2c(ccc3cc(N)c(Br)cc32)n1 | 
7.8 µM | > 100 µM | 5.12 µM | Nc1cc(N)c2c(ccc3nc(N)nc(O)c32)c1 | 
0.36 µM | 30 µM | 0.64 µM | Nc1nc(O)c2c(ccc3ccc(Br)c(N)c32)n1 | 
 | 100 µM |  | Cc1nc(O)c2c(ccc3ccc(F)cc32)n1 | IC50 (Thymidylate synthase [8]): 29.6 µM
 | > 100 µM |  | Nc1nc(O)c2c(ccc3cc(Cl)ccc32)n1 | inhibition [17]: 45%
 | 20 µM | 5 µM | COc1ccc2ccc3nc(N)nc(O)c3c2c1 | IC50 (Thymidylate synthase [13]; read-out: I50): 1.6 µM
 | 30 µM | 119 µM | Nc1nc(O)c2c(ccc3c(N)c(F)ccc32)n1 | inhibition (Thymidylate synthase [18]): 29%
15.2 µM | > 100 µM | 39 µM | Nc1nc(O)c2c(ccc3c(N)cccc32)n1 | 

The next lines start with the molecule.

SMILES | IC50 (Thymidylate synthase [1]) | IC50 (SW480) | IC50 (Thymidylate synthase [3]) | other results
CC1Cc2nc(N)nc(O)c2-c2ccc(Cl)cc21 (configuration not stated) | 58.9 µM |  |  | inhibition [2]: 40%
Nc1nc2ccc3ccc(Cl)cc3c2c(=O)[nH]1 | 0.025 µM | 3 µM | 0.52 µM | 
Nc1nc2ccc3cc(F)ccc3c2c(=O)[nH]1 | 44 µM | 50 µM | 231 µM | 
Nc1nc(O)c2c(cc(CO)c3ccccc32)n1 | 8.6 µM | > 100 µM | 102 µM | 
Cc1ccc2c(c1)-c1c(O)nc(N)nc1CC2 | 0.72 µM | > 100 µM | 5.8 µM | 
CCOc1cc2c(ccc3nc(N)nc(O)c32)cc1Br |  |  |  | inhibition [4]: 14%; inhibition [5]: 15.9%; inhibition (Thymidylate synthase [6]): 34%
Cc1nc(O)c2c(ccc3ccccc32)n1 |  | > 100 µM |  | IC50 (Thymidylate synthase [8]): 30.1 µM
Nc1nc(O)c2c(n1)CCc1ccc(-c3ccccc3)cc1-2 |  |  |  | inhibition [9]: 25%; inhibition [10]: 0%
Nc1nc2ccc3c(I)cccc3c2c(=O)[nH]1 | 1.31 µM | 10 µM | 6.3 µM | 
COc1ccc2c(c1)-c1c(O)nc(N)nc1CC2 | 3.6 µM | 25 µM | 6 µM | 
Oc1nc(NCc2ccccc2)nc2ccc3c(Br)cccc3c12 | 0.52 µM | 60 µM | 0.63 µM | 
Nc1nc2c(c(=O)[nH]1)-c1cc(Cl)c(Cl)cc1CC2 |  |  | 6.7 µM | IC50 (Thymidylate synthase [13]): 2.96 µM
Nc1nc2ccc3cc([N+](=O)[O-])c(Br)cc3c2c(=O)[nH]1 | 3.12 µM | 2.5 µM | 31 µM | 
CC1(C)Cc2nc(N)nc(O)c2-c2ccccc21 | 43.9 µM |  | 49.6 µM | 
Cc1nc2c(c(=O)[nH]1)-c1cc(Cl)ccc1CC2 |  | > 100 µM |  | IC50 (Thymidylate synthase [8]): 18.8 µM
Nc1nc(O)c2c(n1)CCc1cc(Cl)c(Cl)cc1-2 |  | 24 µM |  | inhibition [14]: 21.7%
Nc1nc(O)c2c(n1)CCc1c(Cl)cccc1-2 |  |  | 369 µM | inhibition (Thymidylate synthase [15]): 38%; inhibition [16]: 23.1%
Nc1nc2ccc3cc([N+](=O)[O-])cc([N+](=O)[O-])c3c2c(=O)[nH]1 | 145 µM |  | 104 µM | 
